System: Avena fatua
Assay: Pre-emergence herbicidal action, AVEFA
Assay type: in vivo
Conditions: comparative experiment, 20 g of a.i./ha
Excerpt: 1. Pre-Emergence Herbicidal Action Against Harmful Plants Seeds of monocotyledonous and dicotyledonous weed plants and crop plants are laid out in sandy loam soil in wood-fiber pots and covered with soil. The compounds of the invention, formulated in the form of wettable powders (WP) or as emulsion concentrates (EC), are then applied to the surface of the covering soil in the form of an aqueous suspension or emulsion at a water application rate equating to 600 to 800 l/ha, with addition of 0.2% wetting agent. After the treatment, the pots are placed in a greenhouse and kept under good growth conditions for the trial plants. The damage to the test plants is scored visually after a test period of 3 weeks by comparison with untreated controls (herbicidal activity in percent (%): 100% activity=the plants have died, 0% activity=like control plants). […] The tables below illustrate, in an exemplary manner, the post-emergence herbicidal action of the compounds according to the invention, the herbicidal activity being stated in percent. [table] In the experiments that follow, herbicidal action of numerous inventive compounds and the known compounds that are structurally closest from D1 (WO 2012/028579 A1) and D2 (WO 2018/202535 A1) were compared under the above-specified conditions by the pre-emergence and post-emergence method. […]

SMILES: CSCc1c(C(F)F)ccc(C(=O)Nc2nnnn2C)c1Cl [Example 1-320]
- Herbicidal action against AVEFA: 70

Reference: patent publication US12492173B2, “Herbicidal substituted N-tetrazolyl aryl carboxamides” (Bayer Aktiengesellschaft, priority 2019, dated 2025)
